These compounds were tested against T1, Cdc7 (BEV coexpressed huCDC7/DBF4) (Homo sapiens, UniProt O00311) (assay: Cdc7 enzyme inhibition assay ([33P]ATP, biotinylated peptide substrate, FlashPlate)). Conditions: Table 3; enzyme inhibition data (Ki).
T1 construct: made in house; host or cells: BEV (baculovirus expression vector) co-expression; insect cells are implied but no cell line is named
Format: biochemical
Protocol: Cdc7 (BEV coexpressed huCDC7/DBF4) is prepared internally. Cdc7 assays are conducted as follows with final concentrations as listed. […] Reactions are quenched after 1 hr by the addition of 90 μL stop buffer (50 mM EDTA, 2M NaCl). […] (Ki) for exemplary compounds.

T1 sequence (O00311 whole entry): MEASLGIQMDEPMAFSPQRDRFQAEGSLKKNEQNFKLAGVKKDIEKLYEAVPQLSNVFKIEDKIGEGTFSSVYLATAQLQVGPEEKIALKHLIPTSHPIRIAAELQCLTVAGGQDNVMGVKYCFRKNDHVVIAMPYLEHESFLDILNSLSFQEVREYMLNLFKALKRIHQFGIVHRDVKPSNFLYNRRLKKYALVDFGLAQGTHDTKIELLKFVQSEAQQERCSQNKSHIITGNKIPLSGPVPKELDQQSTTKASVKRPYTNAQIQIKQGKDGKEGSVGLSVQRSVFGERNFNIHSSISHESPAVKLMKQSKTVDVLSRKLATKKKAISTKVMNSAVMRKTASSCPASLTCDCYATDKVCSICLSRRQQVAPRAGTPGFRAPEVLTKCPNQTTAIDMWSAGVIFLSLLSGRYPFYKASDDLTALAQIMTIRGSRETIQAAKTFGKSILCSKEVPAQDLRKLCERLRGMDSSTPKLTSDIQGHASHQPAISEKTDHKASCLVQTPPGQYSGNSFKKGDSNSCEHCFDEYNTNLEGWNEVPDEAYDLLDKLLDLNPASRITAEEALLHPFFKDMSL
T1 sequence (Q9UBU7 whole entry partner): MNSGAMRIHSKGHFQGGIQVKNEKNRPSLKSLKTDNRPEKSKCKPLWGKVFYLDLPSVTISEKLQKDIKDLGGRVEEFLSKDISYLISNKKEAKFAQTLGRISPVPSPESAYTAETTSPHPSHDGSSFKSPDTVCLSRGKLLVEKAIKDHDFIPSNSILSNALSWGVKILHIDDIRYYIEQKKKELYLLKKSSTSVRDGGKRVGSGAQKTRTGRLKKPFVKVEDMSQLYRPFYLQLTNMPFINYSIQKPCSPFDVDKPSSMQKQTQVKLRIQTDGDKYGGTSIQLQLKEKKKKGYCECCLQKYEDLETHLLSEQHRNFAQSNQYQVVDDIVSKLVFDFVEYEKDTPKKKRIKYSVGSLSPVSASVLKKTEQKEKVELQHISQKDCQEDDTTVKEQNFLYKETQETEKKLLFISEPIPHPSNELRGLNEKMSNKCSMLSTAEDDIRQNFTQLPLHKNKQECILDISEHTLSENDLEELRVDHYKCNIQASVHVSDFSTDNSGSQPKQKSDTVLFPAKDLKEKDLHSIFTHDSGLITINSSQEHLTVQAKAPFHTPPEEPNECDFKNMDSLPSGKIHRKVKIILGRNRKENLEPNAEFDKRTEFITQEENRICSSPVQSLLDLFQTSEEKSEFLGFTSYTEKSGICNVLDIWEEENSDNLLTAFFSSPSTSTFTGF

| Structure (SMILES) | Ki [nM] |
| --- | --- |
| COc1ccc(-c2cnc3[nH]cc(-c4cc(Cl)nc(NC5CCCCC5)c4)c3c2)cn1 [Example 431, 6-chloro-N-cyclohexyl-4-[5-(6-methoxypyridin-3-yl)-1H-pyrrolo[2,3-b]pyridin-3-yl]pyridin-2-amine] | < 10 |
| CCN(CCO)CC(=O)N[C@H]1CC[C@H](Nc2cc(-c3c[nH]c4ncc(OC)cc34)cc(Cl)n2)CC1 [Example 432, N-(trans-4-{[6-chloro-4-(5-methoxy-1H-pyrrolo[2,3-b]pyridin-3-yl)pyridin-2-yl]amino}cyclohexyl)-N~2~-ethyl-N~2~-(2-hydroxyethyl)glycinamide] | < 10 |
| COc1cnc2[nH]cc(-c3cc(Cl)nc(N[C@H]4CC[C@H](NC(=O)CNCCO)CC4)c3)c2c1 [Example 433, N-(trans-4-{[6-chloro-4-(5-methoxy-1H-pyrrolo[2,3-b]pyridin-3-yl)pyridin-2-yl]amino}cyclohexyl)-N~2~-(2-hydroxyethyl)glycinamide] | < 10 |
| CN(C)c1ccc(Nc2cc(-c3c[nH]c4ncccc34)cc(Cl)n2)cc1 [Example 434, N′-[6-chloro-4-(1H-pyrrolo[2,3-b]pyridin-3-yl)pyridin-2-yl]-N,N-dimethylbenzene-1,4-diamine] | < 10 |
| Clc1cc(-c2c[nH]c3ncccc23)cc(Nc2ccc3c(c2)CCC3)n1 [Example 435, 6-chloro-N-(2,3-dihydro-1H-inden-5-yl)-4-(1H-pyrrolo[2,3-b]pyridin-3-yl)pyridin-2-amine] | < 10 |
| Clc1cc(-c2c[nH]c3ncccc23)cc(Nc2ccc3c(c2)OCCO3)n1 [Example 436, 6-chloro-N-(2,3-dihydro-1,4-benzodioxin-6-yl)-4-(1H-pyrrolo[2,3-b]pyridin-3-yl)pyridin-2-amine] | < 10 |
| Clc1cc(-c2c[nH]c3ncccc23)cc(Nc2ccc(N3CCOCC3)cc2)n1 [Example 438, 6-chloro-N-[4-(morpholin-4-yl)phenyl]-4-(1H-pyrrolo[2,3-b]pyridin-3-yl)pyridin-2-amine] | < 10 |
| Clc1cc(-c2c[nH]c3ncccc23)cc(Nc2cccc3c2CCCC3)n1 [Example 439, 6-chloro-4-(1H-pyrrolo[2,3-b]pyridin-3-yl)-N-(5,6,7,8-tetrahydronaphthalen-1-yl)pyridin-2-amine] | < 10 |
| CC(C)(C)c1ccc(Nc2cc(-c3c[nH]c4ncccc34)cc(Cl)n2)cc1 [Example 440, N-(4-tert-butylphenyl)-6-chloro-4-(1H-pyrrolo[2,3-b]pyridin-3-yl)pyridin-2-amine] | < 10 |
| Clc1cc(-c2c[nH]c3ncccc23)cc(Nc2cccc3c2CCC3)n1 [Example 441, 6-chloro-N-(2,3-dihydro-1H-inden-4-yl)-4-(1H-pyrrolo[2,3-b]pyridin-3-yl)pyridin-2-amine] | < 10 |
| Clc1cc(-c2c[nH]c3ncccc23)cc(Nc2ccc3ncccc3c2)n1 [Example 442, N-[6-chloro-4-(1H-pyrrolo[2,3-b]pyridin-3-yl)pyridin-2-yl]quinolin-6-amine] | < 10 |
| CN1CCN(c2ccc(Nc3cc(-c4c[nH]c5ncccc45)cc(Cl)n3)cc2)CC1 [Example 443, 6-chloro-N-[4-(4-methylpiperazin-1-yl)phenyl]-4-(1H-pyrrolo[2,3-b]pyridin-3-yl)pyridin-2-amine] | < 10 |
| O=S1(=O)CCN(c2ccc(Nc3cc(-c4c[nH]c5ncccc45)cc(Cl)n3)cc2)CC1 [Example 444, 6-chloro-N-[4-(1,1-dioxidothiomorpholin-4-yl)phenyl]-4-(1H-pyrrolo[2,3-b]pyridin-3-yl)pyridin-2-amine] | < 10 |
| COc1cnc2[nH]cc(-c3cc(Cl)nc(N[C@H]4CC[C@H](NC(=O)CN[C@H]5CC[C@H](O)CC5)CC4)c3)c2c1 [Example 445, N-(trans-4-{[6-chloro-4-(5-methoxy-1H-pyrrolo[2,3-b]pyridin-3-yl)pyridin-2-yl]amino}cyclohexyl)-N~2~-(trans-4-hydroxycyclohexyl)glycinamide] | < 10 |
| COc1cnc2[nH]cc(-c3cc(Cl)nc(N[C@H]4CC[C@H](NC(=O)CNC(C)C)CC4)c3)c2c1 [Example 446, N-(trans-4-{[6-chloro-4-(5-methoxy-1H-pyrrolo[2,3-b]pyridin-3-yl)pyridin-2-yl]amino}cyclohexyl)-N~2~-propan-2-ylglycinamide] | < 10 |
| COc1cnc2[nH]cc(-c3cc(Cl)nc(NC4CCC(CC5CCC(NS(=O)(=O)c6c(C)noc6C)CC5)CC4)c3)c2c1 (stereo not drawn) [Example 447, N-{4-[(4-{[6-chloro-4-(5-methoxy-1H-pyrrolo[2,3-b]pyridin-3-yl)pyridin-2-yl]amino}cyclohexyl)methyl]cyclohexyl}-3,5-dimethyl-1,2-oxazole-4-sulfonamide] | < 10 |
| COc1cnc2[nH]cc(-c3cc(Cl)nc(NC4CCCC(NC(=O)CN(C)C)C4)c3)c2c1 (stereo not drawn) [Example 448, N-(3-{[6-chloro-4-(5-methoxy-1H-pyrrolo[2,3-b]pyridin-3-yl)pyridin-2-yl]amino}cyclohexyl)-N~2~,N~2~-dimethylglycinamide] | < 10 |
| Clc1cc(-c2c[nH]c3ncccc23)cc(Nc2ccc(N3CCN(Cc4ccccn4)CC3)cc2)n1 [Example 449, 6-chloro-N-{4-[4-(pyridin-2-ylmethyl)piperazin-1-yl]phenyl}-4-(1H-pyrrolo[2,3-b]pyridin-3-yl)pyridin-2-amine] | < 10 |
| Clc1cc(-c2c[nH]c3ncccc23)cc(Nc2ccc(N3CCN(CC4CCCCC4)CC3)cc2)n1 [Example 450, 6-chloro-N-{4-[4-(cyclohexylmethyl)piperazin-1-yl]phenyl}-4-(1H-pyrrolo[2,3-b]pyridin-3-yl)pyridin-2-amine] | < 10 |
| CC(C)CN1CCN(c2ccc(Nc3cc(-c4c[nH]c5ncccc45)cc(Cl)n3)cc2)CC1 [Example 451, 6-chloro-N-{4-[4-(2-methylpropyl)piperazin-1-yl]phenyl}-4-(1H-pyrrolo[2,3-b]pyridin-3-yl)pyridin-2-amine] | < 10 |
| Nc1ccc(-c2cnc3[nH]cc(-c4cc(Cl)nc(N[C@H]5CC[C@H](NS(=O)(=O)C6CC6)CC5)c4)c3c2)cn1 [Example 452, N-[trans-4-({4-[5-(6-aminopyridin-3-yl)-1H-pyrrolo[2,3-b]pyridin-3-yl]-6-chloropyridin-2-yl}amino)cyclohexyl]cyclopropanesulfonamide] | < 10 |

Now from value to compound:

| Ki [nM] | Structure (SMILES) |
| --- | --- |
| < 10 | Clc1cc(-c2c[nH]c3ncccc23)cc(Nc2ccc(Oc3ccccc3)cc2)n1 [Example 419, 6-chloro-N-(4-phenoxyphenyl)-4-(1H-pyrrolo[2,3-b]pyridin-3-yl)pyridin-2-amine] |
| < 10 | Clc1cc(-c2c[nH]c3ncccc23)cc(Nc2ccc(N3CCCCC3)cc2)n1 [Example 420, 6-chloro-N-[4-(piperidin-1-yl)phenyl]-4-(1H-pyrrolo[2,3-b]pyridin-3-yl)pyridin-2-amine] |
| < 10 | COC(=O)c1cnc2[nH]cc(-c3cc(Cl)nc(NC4CCCCC4)c3)c2c1 [Example 421, methyl 3-[2-chloro-6-(cyclohexylamino)pyridin-4-yl]-1H-pyrrolo[2,3-b]pyridine-5-carboxylate] |
| < 10 | O=C(CN1CCN(CCO)CC1)N[C@H]1CC[C@H](Nc2cc(-c3c[nH]c4ncccc34)cc(Cl)n2)CC1 [Example 422, N-(trans-4-{[6-chloro-4-(1H-pyrrolo[2,3-b]pyridin-3-yl)pyridin-2-yl]amino}cyclohexyl)-2-[4-(2-hydroxyethyl)piperazin-1-yl]acetamide] |
| < 10 | Cc1cccc(C)c1N1CCN(CC(=O)N[C@H]2CC[C@H](Nc3cc(-c4c[nH]c5ncccc45)cc(Cl)n3)CC2)CC1 [Example 423, N-(trans-4-{[6-chloro-4-(1H-pyrrolo[2,3-b]pyridin-3-yl)pyridin-2-yl]amino}cyclohexyl)-2-[4-(2,6-dimethylphenyl)piperazin-1-yl]acetamide] |
| < 10 | COc1cnc2[nH]cc(-c3cc(Cl)nc(NC4CCC(CC5CCC(NC6CCC6)CC5)CC4)c3)c2c1 (stereo not drawn) [Example 424, 6-chloro-N-(4-{[4-(cyclobutylamino)cyclohexyl]methyl}cyclohexyl)-4-(5-methoxy-1H-pyrrolo[2,3-b]pyridin-3-yl)pyridin-2-amine] |
| < 10 | CCC(CC)NC1CCC(CC2CCC(Nc3cc(-c4c[nH]c5ncc(OC)cc45)cc(Cl)n3)CC2)CC1 (stereo not drawn) [Example 425, 6-chloro-4-(5-methoxy-1H-pyrrolo[2,3-b]pyridin-3-yl)-N-(4-{[4-(pentan-3-ylamino)cyclohexyl]methyl}cyclohexyl)pyridin-2-amine] |
| < 10 | COc1cnc2[nH]cc(-c3cc(Cl)nc(NC4CCC(CC5CCC(NCC6CCCC6)CC5)CC4)c3)c2c1 (stereo not drawn) [Example 426, 6-chloro-N-[4-({4-[(cyclopentylmethyl)amino]cyclohexyl}methyl)cyclohexyl]-4-(5-methoxy-1H-pyrrolo[2,3-b]pyridin-3-yl)pyridin-2-amine] |
| < 10 | N[C@H]1CC[C@H](Nc2cc(-c3c[nH]c4ncc(OCCc5ccccn5)cc34)cc(Cl)n2)CC1 [Example 427, trans-N-(6-chloro-4-{5-[2-(pyridin-2-yl)ethoxy]-1H-pyrrolo[2,3-b]pyridin-3-yl}pyridin-2-yl)cyclohexane-1,4-diamine] |
| < 10 | CC(C)COc1cnc2[nH]cc(-c3cc(Cl)nc(N[C@H]4CC[C@H](N)CC4)c3)c2c1 [Example 428, trans-N-{6-chloro-4-[5-(2-methylpropoxy)-1H-pyrrolo[2,3-b]pyridin-3-yl]pyridin-2-yl}cyclohexane-1,4-diamine] |
| < 10 | O=C(N[C@H]1CC[C@H](Nc2cc(-c3c[nH]c4ncccc34)cc(Cl)n2)CC1)C1CN(Cc2ccccn2)C1 [Example 429, N-(trans-4-{[6-chloro-4-(1H-pyrrolo[2,3-b]pyridin-3-yl)pyridin-2-yl]amino}cyclohexyl)-1-(pyridin-2-ylmethyl)azetidine-3-carboxamide] |
| < 10 | COc1cnc2[nH]cc(-c3cc(Cl)nc(N[C@H]4CC[C@H](NC(=O)C(F)(F)F)CC4)c3)c2c1 [Example 430, N-(trans-4-{[6-chloro-4-(5-methoxy-1H-pyrrolo[2,3-b]pyridin-3-yl)pyridin-2-yl]amino}cyclohexyl)-2,2,2-trifluoroacetamide] |

From patent US8435980B2 (AbbVie Inc., priority 2009, dated 2013)
